Experiment: Test 1: Maximal solubility of an active in a solvent system (visual observation)
Assay type: physicochemical
Excerpt: The maximal solubility of an active or a combo of actives in a solvent system is characterized by visual observation. At a given concentration, if the mixture is limpid (with the naked eye), the active ingredient(s) is (are) considered to be soluble in the solvent system at this concentration. However, if a sedimentation of the active ingredient(s) appears, it is not soluble anymore in the solvent system and the maximal solubility is reached. The maximal solubility is thus defined as the maximum amount of active ingredient(s) that can be dissolved in the solvent system, equal to the amount at which the mixture remains limpid (with the naked eye). Each active ingredient or combo is added little by little in different solvent systems. The solutions are magnetically stirred until complete dissolution. Then an additional amount of active ingredient is added and this operation is repeated until the last part of active ingredient added could not be dissolved anymore, taking care to stir the solution after each addition of active ingredient.

With `CCCCCCCCCC(=O)N(C)C` [Rhodiasolv ® ADMA 10, N,N-dimethyldecanamide] the “maximal solubility of Oxyfluorfen” value (oxyfluorfen (solo) dissolved in the solvent system) was 49.0 g/100 g of solvent and the “maximal solubility of Picoxystrobin” value (picoxystrobin (solo) dissolved in the solvent system) was 30.0 g/100 g of solvent.
